Experimental data: ChEMBL document CHEMBL1142919, “Naphthoindole-based analogues of tryptophan and tryptamine: synthesis and cytotoxic properties” (Bioorg Med Chem, 2007)
Active and inactive are the calls of the source. No cut-off for these calls is given here.

Experiments:
[1] = test system: K562; experiment: Antiproliferative activity against human K562 cells after 72 hrs by MTT test; type: functional, cell-based; details: K562, 72 h
[2] = Antiproliferative activity against human multidrug-resistant K562i/S9 cells expressing Pgp after 72 hrs by MTT test; type: functional, cell-based; details: K562i/S9, 72 h
[3] = test system: K562; experiment: Resistance index, Ratio of IC50 for human drug-resistant K562i/S9 cells to IC50 for human K562 cells; type: functional
[4] = test system: HCT-116; experiment: Antiproliferative activity against human HCT116 cells expressing wild-type p53 after 72 hrs by MTT test; type: functional, cell-based; details: HCT-116, 72 h
[5] = Antiproliferative activity against human p53 deficient HCT116 p53-/- cells after 72 hrs by MTT test; type: functional, cell-based; details: HCT-116, 72 h
[6] = test system: HCT-116; experiment: Resistance index, Ratio of IC50 for human p53 deficient HCT116 p53-/- cells to IC50 for human wild type HCT116 cells; type: functional
[7] = biological target: T1, DNA topoisomerase 1 (Homo sapiens) (UniProt P11387); experiment: Inhibition of topoisomerase 1 assessed as attenuation of DNA relaxation
T1 sequence (whole entry): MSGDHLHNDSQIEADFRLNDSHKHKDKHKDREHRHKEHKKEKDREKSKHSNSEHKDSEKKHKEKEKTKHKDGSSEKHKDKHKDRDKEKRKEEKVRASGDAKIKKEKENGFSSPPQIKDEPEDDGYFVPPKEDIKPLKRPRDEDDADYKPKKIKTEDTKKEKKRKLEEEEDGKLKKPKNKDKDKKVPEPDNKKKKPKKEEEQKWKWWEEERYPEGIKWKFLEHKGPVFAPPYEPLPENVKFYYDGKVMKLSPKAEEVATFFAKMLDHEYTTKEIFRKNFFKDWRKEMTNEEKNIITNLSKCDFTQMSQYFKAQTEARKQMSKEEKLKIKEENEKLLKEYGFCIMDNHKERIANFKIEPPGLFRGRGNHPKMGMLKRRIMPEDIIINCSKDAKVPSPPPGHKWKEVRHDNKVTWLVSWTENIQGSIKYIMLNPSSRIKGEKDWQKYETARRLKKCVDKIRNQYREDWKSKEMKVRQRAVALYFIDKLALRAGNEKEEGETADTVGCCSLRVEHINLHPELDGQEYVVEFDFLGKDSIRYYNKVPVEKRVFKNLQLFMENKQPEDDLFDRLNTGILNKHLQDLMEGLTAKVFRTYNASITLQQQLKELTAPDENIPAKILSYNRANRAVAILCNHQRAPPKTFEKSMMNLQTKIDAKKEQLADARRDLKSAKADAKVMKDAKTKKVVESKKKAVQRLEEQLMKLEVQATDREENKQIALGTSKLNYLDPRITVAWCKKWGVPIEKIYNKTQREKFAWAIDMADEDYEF

[8] = biological target: T1, DNA topoisomerase 1 (Homo sapiens); experiment: Inhibition of topoisomerase 1 at 3 uM
[9] = biological target: T1, DNA topoisomerase 1 (Homo sapiens); experiment: Inhibition of topoisomerase 1 at >50 uM

Row | IC50 [4] | Activity [9] | Structure (SMILES) | IC50 [1] | IC50 [2] | Ratio IC50 [3] | IC50 [5] | Ratio IC50 [6] | Activity [7] | Activity [8]
1 | > 50 µM |  | NC(Cc1c[nH]c2c(O)c3c(c(O)c12)C(=O)c1ccccc1C3=O)C(=O)O (stereo unspecified) | > 50 µM |  |  |  |  |  | 
2 | 1.4 µM | Active | COc1cccc2c1C(=O)c1c(O)c3c(c(O)c1C2=O)C[C@@](O)(C(=O)CO)C[C@@H]3O[C@H]1C[C@H](N)[C@H](O)[C@H](C)O1 [DOXORUBICIN] |  |  |  | 4.4 µM |  |  | 
3 | 14.9 µM |  | CCOC(=O)C(N)Cc1c[nH]c2c(O)c3c(c(O)c12)C(=O)c1ccccc1C3=O (stereo unspecified) | > 50 µM |  |  |  |  |  | 

Row | Structure (SMILES) | IC50 [4] | Activity [9] | IC50 [1] | IC50 [2] | Ratio IC50 [3] | IC50 [5] | Ratio IC50 [6] | Activity [7] | Activity [8]
4 | NCCc1c[nH]c2c(O)c3c(c(O)c12)C(=O)c1ccccc1C3=O | 1.1 µM |  | 4 µM | 2.2 µM | 0.6 | 1.2 µM | 1.1 | Dose-dependent effect | Active
5 | CC(N)Cc1c[nH]c2c(O)c3c(c(O)c12)C(=O)c1ccccc1C3=O (stereo unspecified) | 4.8 µM |  | 12 µM | 13.4 µM | 1.1 | 5 µM | 1 |  | 
